Drawing on the SangsterLogP compilation, this text covers logP for 14 compounds.

Regarding `CCC(C)n1c(=O)[nH]c(C)c(Br)c1=O` (centres undefined), the logP – broadly, a log measure of how a compound divides between an organic and an aqueous phase – was found to be 1.33.

Consider `CC(C)OC(=O)Nc1cccc(Cl)c1`, for which the logP is 3.42.

`CC(Cl)(Cl)C(=O)O` came in with a logP of 1.34.

`Cc1[nH]c(=O)n(C(C)(C)C)c(=O)c1Cl` yielded a logP of 1.44.

As to `CCCN(CC1CC1)c1c([N+](=O)[O-])cc(C(F)(F)F)cc1[N+](=O)[O-]`, the log partition coefficient (logP) came out at 5.16.

`CCCN(CCC)c1c([N+](=O)[O-])cc(S(C)(=O)=O)cc1[N+](=O)[O-]` gave a logP of 4.78.

Take `Cc1cc(Cl)ccc1OCC(=O)O`: the logP was 2.69.

On to `COC(=O)C=C(C)OP(=O)(OC)OC`, for which the logP was found to be 0.55.

`O=C(O)c1c(Cl)ccc(Cl)c1Cl` came in with a logP of 4.34.

`Nc1cc(Cl)cc(C(=O)O)c1Cl` had a logP of 1.46.

`CCC(C)Nc1c([N+](=O)[O-])cc(C(C)(C)C)cc1[N+](=O)[O-]` (centres undefined): the logP was 4.54.

For the compound `ClC1=C(Cl)[C@]2(Cl)C3C(Cl)C(Cl)CC3[C@@]1(Cl)C2(Cl)Cl` (some centres undefined), the logP was 5.89.

With `CN(C)C(=O)C(c1ccccc1)c1ccccc1`, the logP was 2.17.

On to `CC(C)Nc1nc(Cl)nc(NC(C)C)n1`, for which the logP was determined as 3.09.
